Assay results: ChEMBL document CHEMBL5042544, “Discovery of a Potent and Selective ATAD2 Bromodomain Inhibitor with Antiproliferative Activity in Breast Cancer Models” (J Med Chem, 2022)

Key:
[1] = target: T1, ATPase family AAA domain-containing protein 2 (Homo sapiens, UniProt Q6PL18); experiment: Inhibition of GST-ATAD2 BD (951 to 1132 residues) (unknown origin) expressed in Escherichia coli BL21 (DE3) and biotinylated tetra-acetylated histone H4 peptides as substrate incubated for 30 mins by TR-FRET assay
T1 sequence (Q6PL18 whole entry): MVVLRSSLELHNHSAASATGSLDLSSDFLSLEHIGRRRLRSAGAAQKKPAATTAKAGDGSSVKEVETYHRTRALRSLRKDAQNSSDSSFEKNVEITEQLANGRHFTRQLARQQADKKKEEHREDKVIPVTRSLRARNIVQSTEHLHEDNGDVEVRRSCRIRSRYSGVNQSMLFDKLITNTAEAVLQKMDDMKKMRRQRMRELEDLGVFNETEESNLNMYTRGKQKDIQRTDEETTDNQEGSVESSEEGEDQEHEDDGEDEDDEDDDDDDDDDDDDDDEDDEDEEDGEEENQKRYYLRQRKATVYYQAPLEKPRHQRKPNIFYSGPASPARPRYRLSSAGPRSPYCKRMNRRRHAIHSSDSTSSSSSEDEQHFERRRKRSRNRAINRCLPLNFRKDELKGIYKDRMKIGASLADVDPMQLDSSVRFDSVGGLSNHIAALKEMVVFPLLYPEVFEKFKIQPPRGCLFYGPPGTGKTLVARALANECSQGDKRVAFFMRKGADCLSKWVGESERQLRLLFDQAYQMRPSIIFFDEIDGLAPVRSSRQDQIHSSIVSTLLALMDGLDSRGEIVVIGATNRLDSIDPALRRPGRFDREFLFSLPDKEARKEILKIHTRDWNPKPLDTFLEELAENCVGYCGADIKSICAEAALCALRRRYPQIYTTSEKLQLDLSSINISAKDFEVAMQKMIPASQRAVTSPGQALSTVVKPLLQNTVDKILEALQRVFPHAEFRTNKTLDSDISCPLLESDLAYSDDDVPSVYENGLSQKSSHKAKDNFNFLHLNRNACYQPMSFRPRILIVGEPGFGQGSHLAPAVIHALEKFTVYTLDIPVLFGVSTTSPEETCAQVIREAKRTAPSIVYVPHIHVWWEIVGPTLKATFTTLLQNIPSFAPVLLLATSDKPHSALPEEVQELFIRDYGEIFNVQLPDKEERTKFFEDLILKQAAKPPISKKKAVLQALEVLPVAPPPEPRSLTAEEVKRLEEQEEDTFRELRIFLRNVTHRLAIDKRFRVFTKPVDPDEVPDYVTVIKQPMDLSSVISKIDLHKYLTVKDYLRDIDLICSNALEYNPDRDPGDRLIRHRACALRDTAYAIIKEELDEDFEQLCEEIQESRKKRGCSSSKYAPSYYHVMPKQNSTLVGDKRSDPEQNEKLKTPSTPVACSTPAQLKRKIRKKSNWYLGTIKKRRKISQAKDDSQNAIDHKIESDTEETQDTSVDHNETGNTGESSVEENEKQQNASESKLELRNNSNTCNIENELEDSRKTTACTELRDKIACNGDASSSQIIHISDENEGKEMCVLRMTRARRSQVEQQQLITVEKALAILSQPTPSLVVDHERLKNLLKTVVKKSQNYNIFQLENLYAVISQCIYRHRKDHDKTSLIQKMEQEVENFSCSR

[2] = target: Bromodomain-containing protein 4 (Homo sapiens, UniProt O60885); experiment: Displacement of Alexafluor 647-JQ1 from GST-BRD4 BD1 BD2 (44 to 460 residues) (unknown origin) incubated for 60 mins by fluorescence polarization assay
[3] = target: T1, ATPase family AAA domain-containing protein 2; experiment: Displacement of Halo-tagged Histone H3.3 from Nanoluc-ATAD2 BD (962 to 1119 residues) (unknown origin) transfected in human HCT116 cells incubated for 18 hrs in presence of efflux inhibitor elacridar by NanoBRET assay; type: cell-based, HCT-116
[4] = target: T2, Bromodomain-containing protein 2 (Homo sapiens, UniProt P25440); experiment: Binding affinity to human BRD2 bromodomain 1 assessed as residual activity at 300 nM by BROMOscan method relative to control
[5] = target: T2, Bromodomain-containing protein 2; experiment: Binding affinity to human BRD2 bromodomain 2 assessed as residual activity at 300 nM by BROMOscan method relative to control
[6] = target: T3, Bromodomain-containing protein 3 (Homo sapiens, UniProt Q15059); experiment: Binding affinity to human BRD3 bromodomain 2 assessed as residual activity at 300 nM by BROMOscan method relative to control
Target sequence in this assay (Q15059 2-726 limits assumed): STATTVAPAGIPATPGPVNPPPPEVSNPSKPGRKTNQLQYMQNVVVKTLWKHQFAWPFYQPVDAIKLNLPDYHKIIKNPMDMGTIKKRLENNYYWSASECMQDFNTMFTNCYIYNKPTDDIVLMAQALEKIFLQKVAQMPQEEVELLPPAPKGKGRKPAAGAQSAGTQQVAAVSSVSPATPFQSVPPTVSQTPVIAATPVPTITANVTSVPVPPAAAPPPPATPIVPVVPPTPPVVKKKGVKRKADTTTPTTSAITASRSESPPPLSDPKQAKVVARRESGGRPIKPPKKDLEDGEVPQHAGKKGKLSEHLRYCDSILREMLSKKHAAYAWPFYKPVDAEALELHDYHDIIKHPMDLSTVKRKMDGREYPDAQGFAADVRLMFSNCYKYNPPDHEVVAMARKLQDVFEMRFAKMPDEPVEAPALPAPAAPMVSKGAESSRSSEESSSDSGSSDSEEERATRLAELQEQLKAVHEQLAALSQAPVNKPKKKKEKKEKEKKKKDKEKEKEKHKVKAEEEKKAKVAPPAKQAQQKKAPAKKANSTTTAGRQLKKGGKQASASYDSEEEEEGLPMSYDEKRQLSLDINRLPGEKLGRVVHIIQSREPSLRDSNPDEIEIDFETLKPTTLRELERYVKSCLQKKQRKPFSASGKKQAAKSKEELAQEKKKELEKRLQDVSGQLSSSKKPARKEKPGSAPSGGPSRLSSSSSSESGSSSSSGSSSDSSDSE

[7] = target: Bromodomain-containing protein 7 (Homo sapiens) (UniProt Q9NPI1); experiment: Binding affinity to human BRD7 bromodomain assessed as residual activity at 300 nM by BROMOscan method relative to control
[8] = target: Bromodomain-containing protein 9 (Homo sapiens) (UniProt Q9H8M2); experiment: Binding affinity to human BRD9 bromodomain assessed as residual activity at 300 nM by BROMOscan method relative to control
[9] = target: Chromatin remodeling regulator CECR2 (Homo sapiens, UniProt Q9BXF3); experiment: Binding affinity to human CECR2 bromodomain assessed as residual activity at 300 nM by BROMOscan method relative to control
[10] = target: Histone acetyltransferase p300 (Homo sapiens, UniProt Q09472); experiment: Binding affinity to human EP300 bromodomain assessed as residual activity at 300 nM by BROMOscan method relative to control
[11] = target: Protein polybromo-1 (Homo sapiens, UniProt Q86U86); experiment: Binding affinity to human PBRM1 bromodomain 2 assessed as residual activity at 300 nM by BROMOscan method relative to control
[12] = target: Bromodomain and WD repeat-containing protein 1 (Homo sapiens, UniProt Q9NSI6); experiment: Binding affinity to human WDR9 bromodomain 2 assessed as residual activity at 300 nM by BROMOscan method relative to control
[13] = target: T3, Bromodomain-containing protein 3; experiment: Binding affinity to human BRD3 bromodomain 2 assessed as dissociation constant by BROMOscan method
[14] = target: Bromodomain testis-specific protein (Homo sapiens, UniProt Q58F21); experiment: Binding affinity to human BRDT bromodomain 1 assessed as dissociation constant by BROMOscan method
[15] = target: Transcription initiation factor TFIID subunit 1 (Homo sapiens, UniProt P21675); experiment: Binding affinity to human TAF1 bromodomain 2 assessed as dissociation constant by BROMOscan method
[16] = target: T1, ATPase family AAA domain-containing protein 2; experiment: Binding affinity to ATAD2 bromodomain (981 to 1108 residues) (unknown origin) expressed in Escherichia coli BL21 (DE3) by BROMOscan method
[17] = tested on: MDA-MB-468; experiment: Antiproliferative activity against human MDA-MB-468 cells expressing ATAD2 assessed as inhibition of colony formation at 0.01 to 10 uM measured after 14 to 21 days by AlamarBlue staining based colony formation assay; type: functional, cell-based; details: dose 0.01-10 µM, time 14-21 day
[18] = tested on: T47D; experiment: Antiproliferative activity against human T-47D cells expressing ATAD2 assessed as inhibition of colony formation at 0.01 to 10 uM measured after 14 to 21 days by AlamarBlue staining based colony formation assay; type: functional, cell-based; details: dose 0.01-10 µM, time 14-21 day

T2 sequence (P25440 whole entry, looked up): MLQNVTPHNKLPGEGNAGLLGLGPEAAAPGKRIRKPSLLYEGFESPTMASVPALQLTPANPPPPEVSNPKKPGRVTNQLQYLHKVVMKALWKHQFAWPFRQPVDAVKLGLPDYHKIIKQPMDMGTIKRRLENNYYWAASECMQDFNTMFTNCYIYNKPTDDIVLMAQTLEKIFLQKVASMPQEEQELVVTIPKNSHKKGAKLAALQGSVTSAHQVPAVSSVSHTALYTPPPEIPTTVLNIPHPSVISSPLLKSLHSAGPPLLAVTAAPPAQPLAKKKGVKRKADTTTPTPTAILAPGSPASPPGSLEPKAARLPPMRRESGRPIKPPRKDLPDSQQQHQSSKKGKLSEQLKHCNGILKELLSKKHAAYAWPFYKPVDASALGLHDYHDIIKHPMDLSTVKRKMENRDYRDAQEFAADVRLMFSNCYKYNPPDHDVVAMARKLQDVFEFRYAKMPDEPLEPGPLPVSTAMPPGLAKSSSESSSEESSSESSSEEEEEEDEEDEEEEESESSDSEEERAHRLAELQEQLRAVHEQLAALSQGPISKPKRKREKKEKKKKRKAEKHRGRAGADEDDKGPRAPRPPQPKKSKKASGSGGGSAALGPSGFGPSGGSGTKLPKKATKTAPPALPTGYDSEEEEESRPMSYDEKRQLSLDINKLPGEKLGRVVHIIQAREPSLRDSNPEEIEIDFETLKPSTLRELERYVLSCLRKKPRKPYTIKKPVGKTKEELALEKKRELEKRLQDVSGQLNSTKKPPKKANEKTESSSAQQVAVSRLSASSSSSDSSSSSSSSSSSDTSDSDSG
Chain of Bromodomain and WD repeat-containing protein 1 (Q9NSI6 whole entry): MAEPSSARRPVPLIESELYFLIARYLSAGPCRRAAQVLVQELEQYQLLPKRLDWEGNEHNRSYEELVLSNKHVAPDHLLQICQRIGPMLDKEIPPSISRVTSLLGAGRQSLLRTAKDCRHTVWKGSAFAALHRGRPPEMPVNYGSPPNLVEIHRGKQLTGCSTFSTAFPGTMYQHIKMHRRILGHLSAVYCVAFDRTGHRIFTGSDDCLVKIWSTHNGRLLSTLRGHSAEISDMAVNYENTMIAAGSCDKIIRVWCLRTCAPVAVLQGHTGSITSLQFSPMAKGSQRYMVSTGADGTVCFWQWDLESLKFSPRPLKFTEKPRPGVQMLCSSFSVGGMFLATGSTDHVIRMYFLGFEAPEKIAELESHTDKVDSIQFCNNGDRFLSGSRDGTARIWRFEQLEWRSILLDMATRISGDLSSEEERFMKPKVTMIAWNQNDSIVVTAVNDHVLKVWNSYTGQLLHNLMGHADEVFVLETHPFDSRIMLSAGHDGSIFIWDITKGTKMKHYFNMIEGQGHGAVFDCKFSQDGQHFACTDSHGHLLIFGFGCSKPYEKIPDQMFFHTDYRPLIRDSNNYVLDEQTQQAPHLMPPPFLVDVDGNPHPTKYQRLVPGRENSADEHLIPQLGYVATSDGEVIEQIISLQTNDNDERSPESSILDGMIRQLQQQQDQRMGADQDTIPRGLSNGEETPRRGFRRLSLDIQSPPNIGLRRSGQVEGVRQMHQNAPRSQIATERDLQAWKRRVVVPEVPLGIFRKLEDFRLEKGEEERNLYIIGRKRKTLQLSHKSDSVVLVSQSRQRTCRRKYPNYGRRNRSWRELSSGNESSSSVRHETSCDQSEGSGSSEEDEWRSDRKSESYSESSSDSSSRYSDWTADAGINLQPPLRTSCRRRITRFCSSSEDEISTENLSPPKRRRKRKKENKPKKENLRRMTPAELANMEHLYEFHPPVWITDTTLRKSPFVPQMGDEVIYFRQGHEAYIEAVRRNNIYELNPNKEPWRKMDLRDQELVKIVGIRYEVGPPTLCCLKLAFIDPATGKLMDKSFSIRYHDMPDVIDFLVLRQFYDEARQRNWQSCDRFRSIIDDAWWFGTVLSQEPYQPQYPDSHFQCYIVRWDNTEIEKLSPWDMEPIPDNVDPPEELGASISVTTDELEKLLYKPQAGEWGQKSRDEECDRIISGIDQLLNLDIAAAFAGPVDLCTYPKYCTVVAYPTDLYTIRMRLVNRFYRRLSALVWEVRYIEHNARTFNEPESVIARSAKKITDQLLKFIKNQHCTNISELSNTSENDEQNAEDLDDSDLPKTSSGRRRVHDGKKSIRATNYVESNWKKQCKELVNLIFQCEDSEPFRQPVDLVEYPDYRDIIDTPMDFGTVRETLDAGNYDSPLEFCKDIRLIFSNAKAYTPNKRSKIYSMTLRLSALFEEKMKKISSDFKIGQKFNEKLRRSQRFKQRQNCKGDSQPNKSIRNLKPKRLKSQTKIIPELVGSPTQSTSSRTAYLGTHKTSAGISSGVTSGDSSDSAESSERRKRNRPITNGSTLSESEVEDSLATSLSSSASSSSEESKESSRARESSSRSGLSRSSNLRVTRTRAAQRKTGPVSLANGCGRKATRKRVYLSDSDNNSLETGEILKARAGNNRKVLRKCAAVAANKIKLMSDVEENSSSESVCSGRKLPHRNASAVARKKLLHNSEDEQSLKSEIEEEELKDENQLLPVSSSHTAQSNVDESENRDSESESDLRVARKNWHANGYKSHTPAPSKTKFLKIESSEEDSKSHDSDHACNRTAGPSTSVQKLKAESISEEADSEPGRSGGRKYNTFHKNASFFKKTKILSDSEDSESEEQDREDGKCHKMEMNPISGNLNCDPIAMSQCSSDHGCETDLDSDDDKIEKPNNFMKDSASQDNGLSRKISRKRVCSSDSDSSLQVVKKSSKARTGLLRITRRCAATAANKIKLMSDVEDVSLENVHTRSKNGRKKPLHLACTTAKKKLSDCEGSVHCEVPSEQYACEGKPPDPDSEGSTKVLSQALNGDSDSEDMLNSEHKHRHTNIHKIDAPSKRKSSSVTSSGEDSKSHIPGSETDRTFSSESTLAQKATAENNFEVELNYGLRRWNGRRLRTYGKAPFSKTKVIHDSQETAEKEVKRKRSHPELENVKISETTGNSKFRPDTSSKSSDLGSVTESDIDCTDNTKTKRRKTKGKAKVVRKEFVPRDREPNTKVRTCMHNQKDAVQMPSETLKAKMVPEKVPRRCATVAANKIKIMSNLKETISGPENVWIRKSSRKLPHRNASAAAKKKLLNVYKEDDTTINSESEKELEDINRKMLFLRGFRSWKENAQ
Chain of Bromodomain-containing protein 9 (Homo sapiens) (Q9H8M2 whole entry): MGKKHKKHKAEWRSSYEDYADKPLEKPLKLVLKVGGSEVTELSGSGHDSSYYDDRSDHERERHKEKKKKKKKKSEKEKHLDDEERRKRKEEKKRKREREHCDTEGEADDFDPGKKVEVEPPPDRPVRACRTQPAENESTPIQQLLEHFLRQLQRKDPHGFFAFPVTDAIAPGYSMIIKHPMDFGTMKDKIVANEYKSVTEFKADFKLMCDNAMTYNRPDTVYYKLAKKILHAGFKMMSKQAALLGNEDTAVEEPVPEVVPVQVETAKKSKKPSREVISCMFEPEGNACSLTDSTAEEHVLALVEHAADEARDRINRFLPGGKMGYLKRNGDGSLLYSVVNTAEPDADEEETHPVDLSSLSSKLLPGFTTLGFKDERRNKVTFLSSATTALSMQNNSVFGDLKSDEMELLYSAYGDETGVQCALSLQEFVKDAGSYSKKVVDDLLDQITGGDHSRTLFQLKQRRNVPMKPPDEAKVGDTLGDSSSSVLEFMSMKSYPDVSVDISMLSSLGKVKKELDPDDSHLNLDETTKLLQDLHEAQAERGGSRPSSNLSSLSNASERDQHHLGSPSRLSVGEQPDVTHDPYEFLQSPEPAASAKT
Chain of Bromodomain-containing protein 7 (Homo sapiens) (Q9NPI1 whole entry): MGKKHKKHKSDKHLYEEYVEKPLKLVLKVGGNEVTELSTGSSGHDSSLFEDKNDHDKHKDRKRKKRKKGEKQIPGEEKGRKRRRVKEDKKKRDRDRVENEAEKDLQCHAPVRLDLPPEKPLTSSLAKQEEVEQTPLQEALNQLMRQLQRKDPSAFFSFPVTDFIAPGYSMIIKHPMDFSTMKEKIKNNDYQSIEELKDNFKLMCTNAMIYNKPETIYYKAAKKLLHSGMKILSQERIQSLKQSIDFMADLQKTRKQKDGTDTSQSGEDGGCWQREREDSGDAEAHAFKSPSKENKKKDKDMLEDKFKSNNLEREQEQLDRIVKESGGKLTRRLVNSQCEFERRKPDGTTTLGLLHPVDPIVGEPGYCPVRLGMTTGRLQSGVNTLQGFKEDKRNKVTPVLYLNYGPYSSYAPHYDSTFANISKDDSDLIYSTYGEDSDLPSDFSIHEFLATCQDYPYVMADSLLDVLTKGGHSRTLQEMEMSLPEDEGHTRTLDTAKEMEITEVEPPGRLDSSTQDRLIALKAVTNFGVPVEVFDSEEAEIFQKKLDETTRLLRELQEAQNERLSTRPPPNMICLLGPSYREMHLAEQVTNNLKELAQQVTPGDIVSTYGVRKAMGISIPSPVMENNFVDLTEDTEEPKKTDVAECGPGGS

In the case of Cc1nnc2c(NC3CCN(CC(C)(C)F)CC3)cc(C(=O)N3[C@@H]4c5ccccc5C[C@H]3C(=O)N[C@@H]4C(C)C)nn12, the IC50 [1] is reported as 7 nM, the IC50 [2] is reported as 20000 nM and the IC50 [3] is reported as 100 nM. It also gave an Activity [4] of 47%, an Activity [5] of 31% and an Activity [6] of 56%. For the same compound, the Activity [7] was 73%, the Activity [8] was 64% and the Activity [9] was 59%. It also gave an Activity [10] of 41%, an Activity [11] of 80% and an Activity [12] of 53%. For the same compound, the Kd [13] was 200 nM, the Kd [14] was 200 nM and the Kd [15] was 158 nM. The Kd [16] was 1.26 nM, the Activity [17] was “Dose-Dependent Effect” and the Activity [18] was “Dose-Dependent Effect”.
